Experimental data from PubChem BioAssay (NCI).
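Tested at 5 concentrations; 48 h exposure; 96-well plates; endpoints linearly interpolated, else capped at highest concentration. At the GI50, growth is halved. TGI is the concentration that stops growth completely.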

Experiments:
Test in all cases: NCI tumour cell line growth inhibition, 48 h
786-0 renal = tested on: 786-0 renal
A549 NSCLC = tested on: A549 NSCLC
ACHN renal = tested on: ACHN renal
BT-549 breast = tested on: BT-549 breast
CAKI-1 renal = tested on: CAKI-1 renal
COLO 205 colon = tested on: COLO 205 colon
DU-145 prostate = tested on: DU-145 prostate
EKVX NSCLC = tested on: EKVX NSCLC
HCT-116 colon = tested on: HCT-116 colon
HCT-15 colon = tested on: HCT-15 colon
HL-60(TB) leukemia = tested on: HL-60(TB) leukemia
HOP-62 NSCLC = tested on: HOP-62 NSCLC
HOP-92 NSCLC = tested on: HOP-92 NSCLC
HS 578T breast = tested on: HS 578T breast
IGROV1 ovarian = tested on: IGROV1 ovarian
K-562 leukemia = tested on: K-562 leukemia
KM12 colon = tested on: KM12 colon
LOX IMVI melanoma = tested on: LOX IMVI melanoma
M14 melanoma = tested on: M14 melanoma
MCF7 breast = tested on: MCF7 breast
MDA-MB-231 breast = tested on: MDA-MB-231 breast
MDA-MB-435 = tested on: MDA-MB-435
NCI-H23 lung = tested on: NCI-H23 lung
NCI-H460 lung = tested on: NCI-H460 lung
NCI-H522 lung = tested on: NCI-H522 lung
NCI/ADR-RES ovarian = tested on: NCI/ADR-RES ovarian
OVCAR-3 ovarian = tested on: OVCAR-3 ovarian
OVCAR-5 ovarian = tested on: OVCAR-5 ovarian
OVCAR-8 ovarian = tested on: OVCAR-8 ovarian
PC-3 prostate = tested on: PC-3 prostate
RPMI-8226 leukemia = tested on: RPMI-8226 leukemia
SF-268 CNS = tested on: SF-268 CNS
SF-295 CNS = tested on: SF-295 CNS
SF-539 CNS = tested on: SF-539 CNS
SK-MEL-2 melanoma = tested on: SK-MEL-2 melanoma
SK-MEL-5 melanoma = tested on: SK-MEL-5 melanoma
SK-OV-3 ovarian = tested on: SK-OV-3 ovarian
SN12C renal = tested on: SN12C renal
SNB-19 CNS = tested on: SNB-19 CNS
SR leukemia = tested on: SR leukemia
SW-620 colon = tested on: SW-620 colon
T-47D breast = tested on: T-47D breast
TK-10 renal = tested on: TK-10 renal
U251 CNS = tested on: U251 CNS
UACC-257 melanoma = tested on: UACC-257 melanoma
UACC-62 melanoma = tested on: UACC-62 melanoma
UO-31 renal = tested on: UO-31 renal
CCRF-CEM leukemia = tested on: CCRF-CEM leukemia
HCC-2998 colon = tested on: HCC-2998 colon
HT29 colon = tested on: HT29 colon
MOLT-4 leukemia = tested on: MOLT-4 leukemia
NCI-H226 lung = tested on: NCI-H226 lung
OVCAR-4 ovarian = tested on: OVCAR-4 ovarian
SK-MEL-28 melanoma = tested on: SK-MEL-28 melanoma
SNB-75 CNS = tested on: SNB-75 CNS

Compound: COc1cccc(C2NC(=S)NC(C)=C2C(=O)Nc2ccc(F)c(Cl)c2)c1 (centres undefined)
- GI50 (786-0 renal): > 50 µM
- TGI (786-0 renal): > 50 µM
- GI50 (A549 NSCLC): 20.8 µM
- TGI (A549 NSCLC): > 50 µM
- GI50 (ACHN renal): 23.8 µM
- TGI (ACHN renal): > 50 µM
- GI50 (BT-549 breast): 15.2 µM
- TGI (BT-549 breast): 46.1 µM
- GI50 (CAKI-1 renal): 48.9 µM
- TGI (CAKI-1 renal): > 50 µM
- GI50 (COLO 205 colon): 27.2 µM
- TGI (COLO 205 colon): > 50 µM
- GI50 (DU-145 prostate): 36.3 µM
- TGI (DU-145 prostate): > 50 µM
- GI50 (EKVX NSCLC): 22.8 µM
- TGI (EKVX NSCLC): > 50 µM
- GI50 (HCT-116 colon): 23.1 µM
- TGI (HCT-116 colon): > 50 µM
- GI50 (HCT-15 colon): 23.7 µM
- TGI (HCT-15 colon): > 50 µM
- GI50 (HL-60(TB) leukemia): 17.4 µM
- TGI (HL-60(TB) leukemia): > 50 µM
- GI50 (HOP-62 NSCLC): > 50 µM
- TGI (HOP-62 NSCLC): > 50 µM
- GI50 (HOP-92 NSCLC): > 50 µM
- TGI (HOP-92 NSCLC): > 50 µM
- GI50 (HS 578T breast): 13.5 µM
- TGI (HS 578T breast): 40.2 µM
- GI50 (IGROV1 ovarian): 27.6 µM
- TGI (IGROV1 ovarian): > 50 µM
- GI50 (K-562 leukemia): 12.6 µM
- TGI (K-562 leukemia): 49.2 µM
- GI50 (KM12 colon): 18.2 µM
- TGI (KM12 colon): > 50 µM
- GI50 (LOX IMVI melanoma): 17.6 µM
- TGI (LOX IMVI melanoma): > 50 µM
- GI50 (M14 melanoma): 25.2 µM
- TGI (M14 melanoma): > 50 µM
- GI50 (MCF7 breast): 20.2 µM
- TGI (MCF7 breast): > 50 µM
- GI50 (MDA-MB-231 breast): 29 µM
- TGI (MDA-MB-231 breast): > 50 µM
- GI50 (MDA-MB-435): 27.3 µM
- TGI (MDA-MB-435): > 50 µM
- GI50 (NCI-H23 lung): 18.5 µM
- TGI (NCI-H23 lung): 47.7 µM
- GI50 (NCI-H460 lung): 43.2 µM
- TGI (NCI-H460 lung): > 50 µM
- GI50 (NCI-H522 lung): 20.8 µM
- TGI (NCI-H522 lung): > 50 µM
- GI50 (NCI/ADR-RES ovarian): 18.2 µM
- TGI (NCI/ADR-RES ovarian): > 50 µM
- GI50 (OVCAR-3 ovarian): 41.3 µM
- TGI (OVCAR-3 ovarian): > 50 µM
- GI50 (OVCAR-5 ovarian): 12.1 µM
- TGI (OVCAR-5 ovarian): 38.9 µM
- GI50 (OVCAR-8 ovarian): 34.6 µM
- TGI (OVCAR-8 ovarian): > 50 µM
- GI50 (PC-3 prostate): 23.2 µM
- TGI (PC-3 prostate): > 50 µM
- GI50 (RPMI-8226 leukemia): 11.6 µM
- TGI (RPMI-8226 leukemia): > 50 µM
- GI50 (SF-268 CNS): 28.7 µM
- TGI (SF-268 CNS): > 50 µM
- GI50 (SF-295 CNS): 22.4 µM
- TGI (SF-295 CNS): > 50 µM
- GI50 (SF-539 CNS): > 50 µM
- TGI (SF-539 CNS): > 50 µM
- GI50 (SK-MEL-2 melanoma): 29.3 µM
- TGI (SK-MEL-2 melanoma): > 50 µM
- GI50 (SK-MEL-5 melanoma): 13.3 µM
- TGI (SK-MEL-5 melanoma): 32.9 µM
- GI50 (SK-OV-3 ovarian): > 50 µM
- TGI (SK-OV-3 ovarian): > 50 µM
- GI50 (SN12C renal): 26.1 µM
- TGI (SN12C renal): > 50 µM
- GI50 (SNB-19 CNS): > 50 µM
- TGI (SNB-19 CNS): > 50 µM
- GI50 (SR leukemia): 15.8 µM
- TGI (SR leukemia): 40.2 µM
- GI50 (SW-620 colon): > 50 µM
- TGI (SW-620 colon): > 50 µM
- GI50 (T-47D breast): > 50 µM
- TGI (T-47D breast): > 50 µM
- GI50 (TK-10 renal): 30.1 µM
- TGI (TK-10 renal): > 50 µM
- GI50 (U251 CNS): 23.9 µM
- TGI (U251 CNS): > 50 µM
- GI50 (UACC-257 melanoma): 10.4 µM
- TGI (UACC-257 melanoma): 30.7 µM
- GI50 (UACC-62 melanoma): 29.3 µM
- TGI (UACC-62 melanoma): > 50 µM
- GI50 (UO-31 renal): 20.4 µM
- TGI (UO-31 renal): > 50 µM

Compound: CC1(C)C[C@H]2C=C(C=O)[C@]34C[C@]3(C(=O)OC4O)[C@H]2C1 (some centres undefined)
- TGI (A549 NSCLC): 13.1 µM
- TGI (ACHN renal): 8.07 µM
- TGI (BT-549 breast): 4.56 µM
- TGI (CAKI-1 renal): 5.04 µM
- TGI (CCRF-CEM leukemia): > 100 µM
- TGI (COLO 205 colon): 1.44 µM
- TGI (DU-145 prostate): 16.5 µM
- TGI (EKVX NSCLC): 4.34 µM
- TGI (HCC-2998 colon): 12.3 µM
- TGI (HCT-15 colon): 4.7 µM
- TGI (HOP-62 NSCLC): 45.1 µM
- TGI (HS 578T breast): > 100 µM
- TGI (HT29 colon): 4.96 µM
- TGI (IGROV1 ovarian): 9.75 µM
- TGI (K-562 leukemia): > 100 µM
- TGI (KM12 colon): 5.6 µM
- TGI (MCF7 breast): 5.54 µM
- TGI (MDA-MB-231 breast): 6.47 µM
- TGI (MOLT-4 leukemia): > 100 µM
- TGI (NCI-H226 lung): 26.9 µM
- TGI (NCI-H460 lung): 53.4 µM
- TGI (OVCAR-3 ovarian): 8.47 µM
- TGI (OVCAR-4 ovarian): 7.86 µM
- TGI (OVCAR-5 ovarian): 5.14 µM
- TGI (OVCAR-8 ovarian): 3.67 µM
- TGI (PC-3 prostate): 8.74 µM
- TGI (RPMI-8226 leukemia): > 100 µM
- TGI (SF-295 CNS): 23.9 µM
- TGI (SK-MEL-28 melanoma): 9.4 µM
- TGI (SK-MEL-5 melanoma): 9.32 µM
- TGI (SK-OV-3 ovarian): 50.3 µM
- TGI (SN12C renal): > 100 µM
- TGI (SNB-19 CNS): > 100 µM
- TGI (SNB-75 CNS): 6.87 µM
- TGI (SR leukemia): > 100 µM
- TGI (SW-620 colon): > 100 µM
- TGI (T-47D breast): 4.63 µM
- TGI (TK-10 renal): 4.53 µM
- TGI (U251 CNS): 51.7 µM
- TGI (UO-31 renal): 6.92 µM
